One data set addresses integrin αvβ3 (Homo sapiens, UniProt P05106+P06756). Kind of data set: integrin αvβ3 binding assay (Pharmacological Example 1 in WO 99/38849). The text has this:
Whether or not a compound has integrin αvβ3 antagonistic activity may be determined by assaying the antagonistic action by integrin αvβ3 binding assay as described, for example, in Pharmacological Test Example 1 in WO 99/38849.

Data set [1] deals with human vascular smooth muscle cells. Kind of data set: adhesion of human vascular smooth muscle cells to immobilized human vitronectin. In kind it is cell-based. The following applies: read-out: concentration (IC50) necessary for inhibition of adhesion to vitronectin. As to the method:
(§1) The adhesion of vascular smooth muscle cells to immobilized human vitronectin was measured in accordance with the method of Liaw et al. (L. Liaw et al., Circ. Res., 74, 214 (1994)). A Dulbecco's phosphate buffer (Dulbecco's PBS(−)) solution of human serum-derived vitronectin adjusted to a concentration of 4 μg/ml was first added to wells (50 μl/well) of a microplate (Maxisorp), and a reaction for immobilization was allowed to proceed at 4° C. overnight. After washing twice with 150 μl of Dulbecco's PBS (−), Dulbecco's PBS (−) containing 10 mg/ml of bovine serum albumin was added, followed by blocking at 37° C. for one hr. The microplate was then washed twice with 150 μl of Dulbecco's PBS (−) to prepare an assay plate.
Separately, human vascular smooth muscle cells cultivated at 37° C. under 5% carbon dioxide in a medium for vascular smooth muscle cells were separated using a Dulbecco's PBS (−) containing trypsin-EDTA, were washed with Dulbecco's PBS (−), and were then suspended in a Dulbecco's modified Eagle's basal medium to a concentration of 2×10^5/ml.
(§2) Next, 50 μl of a Dulbecco's modified Eagle's basal medium containing 20 mg/ml of bovine serum albumin with a medicament added thereto was added to the wells of the human vitronectin-coated assay microplate, followed by pre-cultivation under 5% carbon dioxide at 37° C. for 10 min. Thereafter, 50 μl of the Dulbecco's modified Eagle's basal medium with human vascular smooth muscle cells suspended therein was added thereto, and the plate was thoroughly stirred. A reaction was allowed to proceed under 5% carbon dioxide at 37° C. for 90 min. The reaction solution containing non-adherent cells was then removed, followed by washing three times with Dulbecco's PBS (−). For the adhered cells, 100 μl of Dulbecco's PBS (−) containing 4% paraformaldehyde was added, and immobilization was allowed to proceed at room temperature for 10 min. Next, 100 μl of a Dulbecco's PBS (−) containing 0.5% Toluidine Blue and 4% paraformaldehyde was added, and staining was allowed to proceed at room temperature for 5 min, followed by thorough washing with distilled water. The inside of the wells was then air-dried, and 1% aqueous sodium dodecylsulfate solution was then added to perform cytolysis. The absorbance of the microplate thus obtained was measured at 595 nm. […] The inhibition was calculated by the following equation. IC50 was determined from a primary regression line of the logarithm of each concentration of the test compound and the logarithm of (100−inhibition)/inhibition. [formula]

Data set [2] concerns rat vascular smooth muscle cells. Kind of data set: adhesion of rat vascular smooth muscle cells to rat vitronectin. The following applies: read-out: concentration (IC50) necessary for inhibition of adhesion to vitronectin. It counts as cell-based. As to the method: as §1, §2
(§3) Rat vascular smooth muscle cells were cultivated in a medium composed of a mixture of equal amounts of 15% fetal calf serum-containing 199 medium and RPMI 1640 medium. Separately, hamster and dog vascular smooth muscle cells were cultivated in a 10% fetal calf serum-containing Dulbecco's modified Eagle's basal medium. These cultivated cells were then suspended in a Dulbecco's modified Eagle's basal medium to concentrations of 3×10^5 cells/ml (rat), 3×10^5 cells/ml (hamster), and 4×10^5 cells /ml (dog), respectively. Rat vitronectin was used in the adhesion system of rats and hamsters, while bovine vitronectin was used in the adhesion system of dogs.

Data set [3] relates to platelet aggregation. Kind of data set: inhibition of platelet aggregation, human. In kind it is cell-based. Particulars: read-out: concentration (IC50) necessary for inhibition of platelet aggregation.
For data set [4], the system named is platelet aggregation. Kind of data set: inhibition of platelet aggregation, rat. In kind it is cell-based. The following applies: read-out: concentration (IC50) necessary for inhibition of platelet aggregation.
Data set [5] deals with rat acute myocardial ischemia-reperfusion model. Kind of data set: rat acute myocardial ischemia-reperfusion model. The following applies: for myocardial infarct size (proportion of the infarct area in the left ventricle): average value±SE; for influence on the blood pressure and the heart rate: doses at which the infarct inhibition action could be obtained. In kind it is in vivo. Here is the method: Male Wistar rats (330 to 420 g) were subjected to controlled respiration using an artificial respirator under pentobarbital anesthesia (60 mg/kg, i.p.), and the blood pressure and the heart rate were measured through a blood pressure amplifier and a heart rate unit. Further, for the ischemia of the myocardium, an increase in voltage of R-wave in the II leading in an electrocardiogram was confirmed with a monitor through a bioelectricity amplifier. The rats underwent thoracotomy, and the coronary artery, together with the myocardium, was then occluded using a suture with a needle. Ischemia for 3 min and reperfusion for 5 min were followed by ischemia for 45 min and reperfusion for 45 min. Medicaments tested and concentrations thereof were 3 mg/kg+3 mg/kg/hr (bolus +infusion) (L; low dose group) and 6 mg/kg+3 mg/kg/hr (bolus +infusion) (H; high dose group) for the compound represented by formula (V); 3 mg/kg+3 mg/kg/hr (bolus +infusion) for the compound represented by formula (VI); 3 mg/kg+3 mg/kg/hr (bolus +infusion) (L; low dose group) and 6 mg/kg+3 mg/kg/hr (bolus +infusion) (H; high dose group) for the compound represented by formula (IV); 5 mg/kg+5 mg/kg/hr(bolus +infusion)(L; low dose group) and 10 mg/kg+10 mg/kg/hr (bolus +infusion) (H; high dose group) for the compound represented by formula (VII); and 1 mg/kg+1 mg/kg/hr (bolus+infusion) (L; low dose group) and 6 mg/kg+6 mg/kg/hr (bolus+infusion) (H; high dose group) for the compound represented by formula (VIII). For a control group (group C), a 10% (v/v) dimethyl sulfoxide/5% glucose solution was administered, and each medicament was dissolved in the same solvent. The dose volume was 3 ml/kg+3 ml/kg/h (bolus+infusion). The medicament was continuously administered through an infusion pump for the period starting with one min before the ischemia and ending with the completion of the experiment. After reperfusion for 45 min, the rats were slaughtered by excessive administration of pentobarbital, and the heart was removed. After perfusion with a Ringer solution, perfusion staining was carried out with 1.5% triphenyltetrazolium chloride, and the proportion of the infarct area in the left ventricle was quantitatively determined. For animals used in the experiment, each group consisted of 5 rats.

Data set [6] concerns dog vascular smooth muscle cells. Kind of data set: adhesion of dog vascular smooth muscle cells to bovine vitronectin. In kind it is cell-based. Particulars: Canis lupus familiaris, read-out: concentration (IC50) necessary for inhibition of adhesion to vitronectin. As to the method:
as §1, §2, §3

The subject of data set [7] is platelet aggregation. Kind of data set: inhibition of platelet aggregation, dog. It counts as cell-based. Particulars: Canis lupus familiaris, read-out: concentration (IC50) necessary for inhibition of platelet aggregation.
Setting [8] is: 3 mg/kg+3 mg/kg/hr (bolus+infusion).
Where [9] appears, read: 3 mg/kg+3 mg/kg/hr (bolus+infusion), n=5.

Each structure is given as a SMILES string. pIC50: −log10 of the molar value.

integrin αvβ3, sequence (P06756 31-1048): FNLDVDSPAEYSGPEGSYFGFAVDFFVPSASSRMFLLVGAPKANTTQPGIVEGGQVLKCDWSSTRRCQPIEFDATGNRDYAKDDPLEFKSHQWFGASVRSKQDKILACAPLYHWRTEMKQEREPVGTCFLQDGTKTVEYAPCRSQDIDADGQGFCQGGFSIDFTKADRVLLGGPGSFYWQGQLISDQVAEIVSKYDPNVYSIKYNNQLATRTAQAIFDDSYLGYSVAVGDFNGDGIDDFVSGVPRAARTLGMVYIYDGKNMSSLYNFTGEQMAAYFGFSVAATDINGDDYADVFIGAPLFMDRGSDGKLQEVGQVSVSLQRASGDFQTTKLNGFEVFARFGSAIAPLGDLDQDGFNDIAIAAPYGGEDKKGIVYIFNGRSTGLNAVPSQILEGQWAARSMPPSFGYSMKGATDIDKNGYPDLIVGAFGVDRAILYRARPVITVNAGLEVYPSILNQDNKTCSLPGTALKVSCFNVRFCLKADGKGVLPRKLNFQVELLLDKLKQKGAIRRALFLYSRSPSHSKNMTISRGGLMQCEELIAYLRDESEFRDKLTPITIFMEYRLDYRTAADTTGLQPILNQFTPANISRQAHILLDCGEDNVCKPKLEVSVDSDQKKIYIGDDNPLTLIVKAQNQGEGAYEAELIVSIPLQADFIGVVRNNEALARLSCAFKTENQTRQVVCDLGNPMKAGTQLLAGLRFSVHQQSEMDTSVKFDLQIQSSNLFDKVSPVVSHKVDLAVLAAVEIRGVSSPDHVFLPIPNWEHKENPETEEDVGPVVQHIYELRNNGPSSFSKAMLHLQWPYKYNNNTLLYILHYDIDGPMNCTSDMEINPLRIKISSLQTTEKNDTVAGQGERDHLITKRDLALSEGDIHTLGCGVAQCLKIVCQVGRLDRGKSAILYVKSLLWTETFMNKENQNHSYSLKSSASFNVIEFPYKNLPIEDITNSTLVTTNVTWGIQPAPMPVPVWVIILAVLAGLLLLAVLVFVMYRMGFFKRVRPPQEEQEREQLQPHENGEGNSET
integrin αvβ3, sequence (P05106 27-788): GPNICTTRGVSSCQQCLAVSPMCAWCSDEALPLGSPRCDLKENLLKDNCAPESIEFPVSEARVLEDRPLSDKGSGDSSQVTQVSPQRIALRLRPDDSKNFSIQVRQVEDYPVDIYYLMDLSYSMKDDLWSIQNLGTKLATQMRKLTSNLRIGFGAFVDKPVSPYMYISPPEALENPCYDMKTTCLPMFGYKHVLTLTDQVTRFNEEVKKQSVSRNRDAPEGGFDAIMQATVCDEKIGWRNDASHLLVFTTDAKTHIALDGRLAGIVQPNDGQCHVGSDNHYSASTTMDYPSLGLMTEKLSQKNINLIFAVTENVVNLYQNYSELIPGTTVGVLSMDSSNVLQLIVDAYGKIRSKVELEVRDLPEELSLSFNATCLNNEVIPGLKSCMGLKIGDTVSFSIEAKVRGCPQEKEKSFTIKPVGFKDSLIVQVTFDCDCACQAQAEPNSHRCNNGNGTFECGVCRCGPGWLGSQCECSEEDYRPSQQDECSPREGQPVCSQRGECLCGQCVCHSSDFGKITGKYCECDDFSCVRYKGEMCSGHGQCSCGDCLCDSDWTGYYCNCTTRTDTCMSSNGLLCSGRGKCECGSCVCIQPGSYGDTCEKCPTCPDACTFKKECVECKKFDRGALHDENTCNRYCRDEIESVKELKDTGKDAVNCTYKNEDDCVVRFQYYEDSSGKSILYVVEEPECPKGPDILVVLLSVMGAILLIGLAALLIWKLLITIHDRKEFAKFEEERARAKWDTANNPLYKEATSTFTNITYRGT

With `O=C(NCC(NS(=O)(=O)c1ccccc1)C(=O)O)c1ccc(N2CCC(NC3=NCCCN3)CC2)cc1` (stereo in doubt) [formula (V), (2S)-Benzenesulfonylamino-3-[4-{4-(1,4,5,6-tetrahydropyrimidin-2-ylamino)piperidin-1-yl}-benzoylamino]propionic Acid], the pIC50 at integrin αvβ3 was 8.92; in data set [1], 6.72; in data set [2], 6.10; in the data set with platelet aggregation [3], 7.20; in the data set on platelet aggregation [4], 4.89. Besides, the “reduction of myocardial infarct size as compared with group C” value (“reduction of myocardial infarct size” below) was 16.1% in data set [5] (setting [8]) and 35.5% in data set [5] (6 mg/kg+3 mg/kg/hr (bolus+infusion), group H). The “myocardial infarct size (proportion of the infarct area in the left ventricle)” value worked out at 39.0±1.7% in data set [5] (setting [9]) and 30.0±1.6% in data set [5] (6 mg/kg+3 mg/kg/hr (bolus+infusion), group H, n=5). In addition, the “influence on the blood pressure and the heart rate” value (“influence” below) in data set [5] is given as “no influence”.
For the molecule `O=C(NCC(NS(=O)(=O)c1ccccc1)C(=O)O)c1ccc(OCCNC2=NCCCN2)cc1` (stereo in doubt) [formula (VI), 4-[2-(3,4,5,6-Tetrahydropyrimidin-2-ylamino)ethyloxy]benzoyl-2(S)-phenylsulfonylamino-β-alanine], the pIC50 at integrin αvβ3 was 9.41; in data set [1] it was 7.14; in data set [2] it was 6.35; with platelet aggregation [3] it was 6.74; in the data set with platelet aggregation [4] it was under 4.00. In data set [5] (setting [8]), the “reduction of myocardial infarct size” value was determined as 34.8%. Moreover, the “myocardial infarct size (proportion of the infarct area in the left ventricle)” value in data set [5] (setting [9]) was 30.3±6.1%. Besides, in data set [5], the “influence” value was “no influence”.
As for `COc1cc(C(=O)NCC(NS(=O)(=O)c2ccccc2)C(=O)O)ccc1N1CCC(NC2=NCCCN2)CC1` (stereo in doubt) [formula (VIII), (2S)-Benzenesulfonylamino-3-[3-methoxy-4-{4-(1,4,5,6-tetrahydropyrimidin-2-ylamino)-piperidin-1-yl}benzoylamino]propionic Acid], the pIC50 is 9.85 on integrin αvβ3; 6.89 in data set [1]; 6.12 in data set [2]; 7.55 in data set [6]; 6.89 in the data set with platelet aggregation [3]; 7.25 in the data set on platelet aggregation [7]. In addition, the “reduction of myocardial infarct size” value in data set [5] (1 mg/kg+1 mg/kg/hr (bolus+infusion), group L) is on record as 24.2%; in data set [5] (6 mg/kg+6 mg/kg/hr (bolus+infusion), group H) it was 32.5%. For the same molecule, the “myocardial infarct size (proportion of the infarct area in the left ventricle)” value in data set [5] (1 mg/kg+1 mg/kg/hr (bolus+infusion), group L, n=5, group C 36.0±1.9%) is 27.3±5.2%; in data set [5] (6 mg/kg+6 mg/kg/hr (bolus+infusion), group H, n=5, group C 36.0±1.9%) it was 24.3±3.8%. In data set [5], the “influence” value is reported as “no influence”.
With `O=C(NC[C@@H](NS(=O)(=O)c1ccccc1)C(=O)O)c1ccc(N2CCCC(NC3=NCCCN3)C2)cc1` (stereo partly drawn) [formula (IX), (2S)-Benzenesulfonylamino-3-[4-{(3S)-(1,4,5,6-tetrahydropyrimidin-2-ylamino)piperidin-1-yl}benzoylamino]propionic Acid], the pIC50 at integrin αvβ3 was 9.28; in data set [1] it was 7.55; in data set [2], 7.02; in data set [6], 7.96; in the data set with platelet aggregation [3], 7.25; in the data set on platelet aggregation [7] it was 7.23.
For the molecule `O=C(NC[C@H](NS(=O)(=O)c1ccc(O)cc1)C(=O)O)c1ccc(N2CCC(NC3=NCCCN3)CC2)c(F)c1` [formula (VII), 3-[3-Fluoro-4-{4-(1,4,5,6-tetrahydropyrimidin-2-ylamino)piperidin-1-yl}benzoylamino]-(2S)-{(4-hydroxybenzenesulfonyl)amino}propionic Acid], the pIC50 was 10.18 on integrin αvβ3; 7.16 in data set [1]; 6.19 in data set [2]; 7.74 in data set [6]; 6.64 with platelet aggregation [3]; under 4.00 with platelet aggregation [4]. Besides, the pIC50 in the data set on platelet aggregation [7] was 6.72. The “reduction of myocardial infarct size” value in data set [5] (5 mg/kg+5 mg/kg/hr (bolus+infusion), group L) came out at 24.5%; in data set [5] (10 mg/kg+10 mg/kg/hr (bolus+infusion), group H) it was 41.5%. In addition, the “myocardial infarct size (proportion of the infarct area in the left ventricle)” value is listed as 29.3±1.7% in data set [5] (5 mg/kg+5 mg/kg/hr (bolus+infusion), group L, n=5, group C 38.8±[…]) and 22.7±3.8% in data set [5] (10 mg/kg+10 mg/kg/hr (bolus+infusion), group H, n=5, group C 38.8±[…]). The “influence” value in data set [5] is listed as “no influence”.
Consider `O=C(NC[C@@H](NS(=O)(=O)c1ccccc1)C(=O)O)c1ccc(N2CCCC(NC3=NCCCN3)C2)cc1F` (stereo partly drawn) [formula (X), (2S)-Benzenesulfonylamino-3-[2-fluoro-4-{(3S)-(1,4,5,6-tetrahydropyrimidin-2-ylamino)-piperidin-1-yl}benzoylamino]propionic Acid], for which the pIC50 on integrin αvβ3 was 9.80; in data set [1] it was 7.89; in data set [2] it was 7.02; in data set [6], 8.01; in the data set with platelet aggregation [3] it was 6.39; with platelet aggregation [7], 6.96.
As for `O=C(NC[C@@H](NS(=O)(=O)c1cccs1)C(=O)O)c1ccc(N2CCCC(NC3=NCCCN3)C2)cc1` (stereo partly drawn) [formula (XI), 3-[4-{(3S)-(1,4,5,6-Tetrahydropyrimidin-2-ylamino)piperidin-1-yl}benzoylamino]-(2S)-{(thiophene-2-sulfonyl)amino}propionic Acid], the values for the pIC50 (at integrin αvβ3; in data set [1]; with platelet aggregation [3]) were 9.85, 7.62 and 7.02, respectively.

(Values after US20030040531A1, “Remedies for reperfusion injury containing integrin alphanubeta 3 antagonist” (priority 2000, published 2003).)
